# From patent EP0723956B1, “Basically substituted benzoylguanidines, process for their preparation, their use as medicaments or diagnostics as well as medicaments containing them” (HOECHST AKTIENGESELLSCHAFT, priority 1995, dated 1996)
# Target: T1, Na^+/H^+-Exchangers von Kaninchenerythrocyten (Oryctolagus cuniculus, UniProt P23791)
# T1 construct: den Na^+-Influx in die Erythrocyten via Na^+/H^+-Austausch flammenphotometrisch bestimmen zu können; endogenous in cells; host or cells: erythrocytes in whole blood from the ear arteries of New Zealand White rabbits
# Assay: Inhibition of the Na+/H+ exchanger of rabbit erythrocytes (amiloride-sensitive Na+ influx, flame photometry)
# Type: cell-based, Kaninchen
# Conditions: Inhibition des Na^+/H^+-Exchangers; erythrocytes of cholesterol-fed rabbits, hyperosmolar salt-sucrose medium, pH 7,4, 37°C
# Description: Inhibition des Na^+/H^+-Exchangers von Kaninchenerythrocyten
# Weiße Neuseeland-Kaninchen (Ivanovas) erhielten eine Standard-Diät mit 2 % Cholesterin für sechs Wochen, um den Na^+/H^+-Austausch zu aktivieren und so den Na^+-Influx in die Erythrocyten via Na^+/H^+-Austausch flammenphotometrisch bestimmen zu können. Das Blut wurde den Ohrarterien entnommen und durch 25 IE Kalium-Heparin ungerinnbar gemacht. Ein Teil jeder Probe wurde zur Doppelbestimmung des Hämatokrits durch Zentrifugieren benutzt. Aliquots von jeweils 100 µl dienten zur Messung des Na^+-Ausgangsgehalts der Erythrocyten.
# Um den Amilorid-sensitiven Natrium-lnflux zu bestimmen, wurden 100 µl jeder Blutprobe in jeweils 5 ml eines hyperosmolaren Salz-Sucrose-Mediums (mmol/l: 140 NaCl, 3 KCI, 150 Sucrose, 0,1 Ouabain, 20 Tris-hydroxymethyl-aminomethan) bei pH 7,4 und 37°C inkubiert. Die Erythrocyten wurden danach dreimal mit eiskalter MgCl2-Ouabain-Lösung (mmol/l: 112 MgCl2, 0,1 Ouabain) gewaschen und in 2,0 ml destilliertem Wasser hämolysiert. Der intrazelluläre Natriumgehalt wurde flammenphotometrisch bestimmt.
# Der Na^+-Nettoinflux wurde aus der Differenz zwischen Natrium-Ausgangswerten und dem Natriumgehalt der Erythrocyten nach Inkubation errechnet. Der Amiloridhemmbare Natrium-lnflux ergab sich aus der Differenz des Natriumgehalts der Erythrocyten nach Inkubation mit und ohne Amilorid 3 x 10-4 mol/l. Auf diese Weise wurde auch bei den erfindungsgemäßen Verbindungen verfahren.
# T1 sequence (P23791 whole entry): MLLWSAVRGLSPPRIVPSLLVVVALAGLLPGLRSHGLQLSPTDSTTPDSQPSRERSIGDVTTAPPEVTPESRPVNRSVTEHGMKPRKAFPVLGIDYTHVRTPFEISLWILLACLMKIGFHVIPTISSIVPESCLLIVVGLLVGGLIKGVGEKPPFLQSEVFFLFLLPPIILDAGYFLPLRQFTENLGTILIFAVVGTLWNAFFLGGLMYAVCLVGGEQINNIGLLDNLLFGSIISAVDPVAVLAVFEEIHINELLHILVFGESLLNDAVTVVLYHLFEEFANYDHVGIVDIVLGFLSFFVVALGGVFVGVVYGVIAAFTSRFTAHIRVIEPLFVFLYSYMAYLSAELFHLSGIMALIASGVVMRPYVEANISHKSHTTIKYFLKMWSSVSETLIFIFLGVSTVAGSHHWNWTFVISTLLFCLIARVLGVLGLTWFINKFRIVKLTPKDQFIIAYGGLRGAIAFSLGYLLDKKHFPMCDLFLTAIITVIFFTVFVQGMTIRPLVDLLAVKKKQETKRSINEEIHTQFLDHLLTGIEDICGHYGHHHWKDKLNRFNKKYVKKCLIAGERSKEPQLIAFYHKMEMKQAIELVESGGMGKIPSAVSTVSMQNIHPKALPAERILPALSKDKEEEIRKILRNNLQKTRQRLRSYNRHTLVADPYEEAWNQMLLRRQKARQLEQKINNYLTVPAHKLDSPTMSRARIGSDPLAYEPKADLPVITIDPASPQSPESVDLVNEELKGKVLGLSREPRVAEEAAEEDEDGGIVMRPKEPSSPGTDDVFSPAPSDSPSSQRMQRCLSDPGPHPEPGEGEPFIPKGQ
row,Compound,IC50
1,"CN1CCN(S(=O)(=O)c2ccc(Oc3ccc(C(=O)N=C(N)N)cc3C(F)(F)F)cc2)CC1 [Beispiel 4, 4-[4-(4-Methylpiperazinosulfonyl)phenoxy]-3-trifluormethylbenzoylguanidin]",82 nM
2,"NC(N)=NC(=O)c1ccc(Oc2ccc(S(=O)(=O)NCCN3CCCC3)cc2)c(C(F)(F)F)c1 [Beispiel 5, 4-[4-(2-Pyrolidinethylaminosulfonyl)phenoxy]-3-trifluormethylbenzoylguanidin]",300 nM
3,"N=S(N)(=O)c1ccc(Oc2ccc(C(=O)N=C(N)N)cc2C(F)(F)F)cc1 (stereo not shown) [Beispiel 9, 4-(4-lmidamidosulfonyl)phenoxy-3-trifluormethyl-benzoylguanidin]",100 nM
4,"CN(C)CCc1ccc(Oc2ccc(C(=O)N=C(N)N)cc2S(C)(=O)=O)cc1 [Beispiel 14, 3-Methylsulfonyl-[4-(2-dimethylaminoethyl)phenoxy]benzoyl-guanidin]",50 nM
5,"CN(C)CCSCc1ccc(Oc2ccc(C(=O)N=C(N)N)cc2S(C)(=O)=O)cc1 [Beispiel 15, 4-[4-(2-Dimethylaminoethyl)thiomethyl-phenoxy]-3-methylsulfonylbenzoyl-guanidin]",10 nM
6,"CN(C)CCSc1ccc(Oc2ccc(C(=O)N=C(N)N)cc2S(C)(=O)=O)cc1 [Beispiel 16, 4-[4-(2-Dimethylaminoethylthio)phenoxy]-3-methylsulfonylbenzoylguanidin]",160 nM
7,"CS(=O)(=O)c1cc(C(=O)N=C(N)N)ccc1Oc1ccc(C(=O)N=C(N)N)cc1 [Beispiel 18, 4-[(4-Guanidinocarbonyl)phenoxy]-3-methylsulfonylbenzoylguanidin]",200 nM
8,"CN(C)CCSCc1ccc(Oc2ccc(C(=O)N=C(N)N)cc2C(F)(F)F)cc1 [Beispiel 19, 4-[4-(2-Dimethylaminoethyl)thiomethyl-phenoxy]-3-trifluormethylbenzoylguanidin]",8 nM
9,"CN(C)CCSc1ccc(Oc2ccc(C(=O)N=C(N)N)cc2C(F)(F)F)cc1 [Beispiel 20, 4-[4-(2-Dimethylaminoethylthio)phenoxy]-3-trifluormethylbenzoylguanidin]",40 nM
10,"CS(=O)(=O)c1cc(C(=O)N=C(N)N)ccc1Oc1ccc(C(O)Cn2ccnc2)cc1 (stereo not shown) [Beispiel 32, 4-[4-(2-N-lmidazolyl-1-hydroxyethyl)phenoxy]-3-methylsulfonylbenzoylguanidin]",440 nM
11,"CN(C)CCS(=O)(=O)Cc1ccc(Oc2ccc(C(=O)N=C(N)N)cc2S(C)(=O)=O)cc1 [Beispiel 46, 4-[4-(2-Dimethylaminoethyl)sulfonylmethyl-phenoxy]-3-methylsulfonylbenzoyl-guanidin]",90 nM
12,"CN(C)CCS(=O)(=O)Cc1ccc(Oc2ccc(C(=O)N=C(N)N)cc2C(F)(F)F)cc1 [Beispiel 47, 4-[4-(2-Dimethylaminoethyl)sulfonylmethyl-phenoxy]-3-trifluormethylbenzoyl-guanidin]",70 nM

# The next lines start with the values.
row,IC50,Compound
1,320 nM,4-[4-(N-t-Butylimido-N'-t-butyl)sulfamoyl]-3-trifluormethyl-benzoylguanidin [Beispiel 2]
2,800 nM,"NC(N)=NC(=O)c1ccc(Oc2ccc(S(N)(=O)=O)cc2)c(C(F)(F)F)c1 [Beispiel 1, 4-(4-Aminosulfonyl)phenoxy-3-trifluormethyl-benzoylguanidin]"
3,50 nM,"CN(C)CCN(C)S(=O)(=O)c1ccc(Oc2ccc(C(=O)N=C(N)N)cc2C(F)(F)F)cc1 [Beispiel 3, 4-[4-N-(Dimethylaminoethyl)-methylsulfamoyl]phenoxy-3-trifluormethylbenzoylguanidin]"
4,100 nM,"NC(N)=NC(=O)c1ccc(Oc2ccc(S(=O)(=O)NCCN3CCCCC3)cc2)c(C(F)(F)F)c1 [Beispiel 6, 4-[4-(2-Piperidinethylaminosulfonyl)phenoxy]-3-trifluormethylbenzoylguanidin]"
5,60 nM,"CN(C)CCCNS(=O)(=O)c1ccc(Oc2ccc(C(=O)N=C(N)N)cc2C(F)(F)F)cc1 [Beispiel 7, 4-[4-(N-Dimethylamino-n-propyl)sulfamoyl]phenoxy-3-trifluormethylbenzoylguanidin]"
6,5 nM,"CN(C)CCNS(=O)(=O)c1ccc(Oc2ccc(C(=O)N=C(N)N)cc2C(F)(F)F)cc1 [Beispiel 8, 4-[4-(N-Dimethylaminoethyl)sulfamoyl]phenoxy-3-trifluormethylbenzoylguanidin]"
7,1000 nM,"CN(C)CCS(=O)(=O)c1ccc(Oc2ccc(C(=O)N=C(N)N)cc2S(C)(=O)=O)cc1 [Beispiel 17, 4-[4-(2-Dimethylaminoethylsulfonyl)phenoxy]-3-methylsulfonylbenzoylguanidin]"
8,14 nM,"CN(C)CCc1ccc(Oc2ccc(C(=O)N=C(N)N)cc2C(F)(F)F)cc1 [Beispiel 21, 3-Trifluormethyl-4-[4-(2-dimethylaminoethyl)phenoxy]benzoyl-guanidin]"
9,120 nM,"CN=C(NC)SCC(=O)c1ccc(Oc2ccc(C(=O)N=C(N)N)cc2S(C)(=O)=O)cc1 [Beispiel 28, 4-[4-(N,N'-Dimethyl-S-isothiuronyl-acetyl)phenoxy]-3-methylsulfonylbenzoylguanidin]"
10,200 nM,"CS(=O)(=O)c1cc(C(=O)N=C(N)N)ccc1Oc1ccc(S(N)(=O)=O)cc1 [Beispiel 33, 3-Methylsulfonyl-4-(4-sulfamoylphenoxy)benzoylguanidin]"

# Test system: Rattenherzen
# Assay: not given
# Conditions: isolated rat hearts; Eur. Heart J. 9 (suppl.1): 167 (1988); cited from earlier work
row,Compound,künstlich ausgelöstes Kammerflimmern
1,NC(N)=NC(=O)c1nc(Cl)c(N)nc1N [Amilorid],völlig unterdrückt
2,CCN(c1nc(N)c(C(=O)N=C(N)N)nc1Cl)C(C)C [Ethylisopropylamilorid],Noch potenter als Amilorid

# Test system: not listed separately
# Assay: Water solubility
# Type: physicochemical
# Conditions: Dihydrochlorid, pH = 5.3, read-out: Wasserlöslichkeit
row,solubility,Compound
1,49 mg/mL,"CN(C)CCc1ccc(Oc2ccc(C(=O)N=C(N)N)cc2C(F)(F)F)cc1 [Beispiel 21, 3-Trifluormethyl-4-[4-(2-dimethylaminoethyl)phenoxy]benzoyl-guanidin]"
